The subject of one experiment is MIA PaCa-2 cells. The experiment can be described thus: Gemcitabine Combination Cell Assay (Cell Titer Glo). In kind it is cell-based. The following applies: for IC50: Homo sapiens; for 10xLS: approximate concentration of Chk1 inhibitor that results in a 10-fold reduction in the IC50 of gemcitabine alone; for 2xLS: approximate concentration of Chk1 inhibitor that results in a two-fold reduction in the IC50 of gemcitabine alone. The protocol: Gemcitabine Combination Cell Assay
Exponentially growing MIA PaCa-2 (ATCC CRL-1420) cells are treated with trypsin to remove cells from the plate surface. Approximately 10,000 cells/well are plated in 96 well plates in RPMI containing 10% fetal bovine serum, 1% sodium pyruvate and 1% L-GlutaMax. Cells are allowed to adhere to the plate surface overnight. Serial half-log dilutions of Chk1 inhibitor test compounds and gemcitabine are made with a final highest concentration of 3000 nM and 100 nM, respectively. Chk1 inhibitors and gemcitabine are combined so that each concentration of Chk1 inhibitor is added to each concentration of gemcitabine. Each drug is also tested as a single agent. Drugs are added to adherent cells (in duplicate) and incubated for 72 h. At 72 h the cells are treated with Promega Cell Titer Glo reagent for approximately 15 minutes. Luminescence (relative light units, RLU) is recorded using a BMG Polarstar Omega plate reader. The single agent concentration that results in a 50% reduction in total signal (IC50) is calculated using PRISM software and a four-parameter non-linear regression curve fit. For combination studies the RLUs are plotted using PRISM on an XY plot with the gemcitabine concentration on the X axis and RLU on the Y axis. The RLU for each concentration of Chk1 inhibitor is plotted as a function of gemcitabine concentration. The IC50 for gemcitabine alone and at each concentration of Chk1 is determined using a four-parameter non-linear regression curve fit. The approximate concentration of Chk1 inhibitor that results in a two and ten-fold reduction in the IC50 of gemcitabine alone is calculated as an indication of synergistic potency.
From the results obtained by following the above protocol, the IC50 values against MIAPaca-2 cells of the Chk1 inhibitor alone (Chk1 IC50), the approximate concentration of Chk1 inhibitor that results in a two-fold (2×LS) and a 10-fold (10×LS) reduction in the IC50 of gemcitabine alone of each of the compounds of Examples 1-154 are shown in Table 4.

The next experiment deals with Chk-1 kinase (Homo sapiens (Human), UniProt O14757). The experiment can be described thus: Chk-1 Kinase Inhibiting Activity (33P-ATP filter assay, CHKtide substrate). Type of experiment: biochemical. To be noted: against Chk-1 kinase; read-out: IC50. Here is the method: Chk-1 Kinase Inhibiting Activity
Sequence of Chk-1 kinase (O14757 whole entry): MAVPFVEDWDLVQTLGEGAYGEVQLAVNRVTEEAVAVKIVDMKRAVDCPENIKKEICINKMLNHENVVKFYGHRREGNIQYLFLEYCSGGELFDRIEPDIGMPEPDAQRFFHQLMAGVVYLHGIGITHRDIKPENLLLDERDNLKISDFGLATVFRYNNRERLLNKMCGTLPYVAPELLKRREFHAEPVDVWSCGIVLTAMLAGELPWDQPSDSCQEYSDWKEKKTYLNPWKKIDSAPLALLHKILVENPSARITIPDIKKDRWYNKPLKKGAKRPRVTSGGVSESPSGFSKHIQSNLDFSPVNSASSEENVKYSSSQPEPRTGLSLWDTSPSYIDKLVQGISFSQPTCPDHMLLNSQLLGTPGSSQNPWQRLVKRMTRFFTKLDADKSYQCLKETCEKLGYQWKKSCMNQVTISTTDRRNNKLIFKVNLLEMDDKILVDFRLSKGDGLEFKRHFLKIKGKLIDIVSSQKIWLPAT
The compounds of the invention were tested for activity against Chk-1 kinase using the materials and protocols set out below.
Base Reaction buffer: 20 mM Hepes (pH 7.5), 10 mM MgCl2, 1 mM EGTA, 0.02% Brij35, 0.02 mg/ml BSA, 0.1 mM Na3VO4, 2 mM DTT, 1% DMSO
*Required cofactors are added individually to each kinase reaction
(i) Prepare indicated substrate in freshly prepared Base Reaction Buffer
(ii) Deliver any required cofactors to the substrate solution above
(iii) Deliver indicated kinase into the substrate solution and gently mix
(iv) Deliver compounds in DMSO into the kinase reaction mixture
(v) Deliver ^33P-ATP (specific activity 0.01 μCi/μl final) into the reaction mixture to initiate the reaction.
(vi) Incubate kinase reaction for 120 minutes at room temperature
(vii) Reactions are spotted onto P81 ion exchange paper (Whatman #3698-915)
(viii) Wash filters extensively in 0.1% phosphoric acid.
(ix) Dry filters and measure counts in scintillation counter
Recombinant full length construct, N-terminal GST tagged, purified from insect cells.
No special measures were taken to activate this kinase.
Final concentration in assay=0.5 nM
Peptide sequence: [[…]]
Final concentration in assay=20 μM
No additional cofactors are added to the reaction mixture
From the results obtained by following the above protocol, the IC50 values against Chk-1 kinase of each of the compounds of Examples 1-153 were determined and these are shown in Table 3.

Where [1] appears, read: Chk1 inhibitor alone, MIA PaCa-2 cells, 72 h, read-out: Chk1 IC50.
[2] abbreviates: MIA PaCa-2, 72 h, read-out: Chk1 IC50 (nM).

The source of these data is patent publication US10010547B2 (CASCADIAN THERAPEUTICS, INC., priority 2014, dated 2018).

SMILES strings stand for the structures. Where a name gives a salt, the structure may show the parent alone. Read-outs that look alike come from different tables or passages of the source. A value given as a limit tells only on which side of the number the result lay.

As a reminder, the IC50 is the concentration at which inhibition is half-maximal. Regarding `COc1cc(NCc2ccccc2)cc(OC)c1-c1cc(Nc2cnc(C#N)cn2)n[nH]1` [Example 1, 5-[5-(4-Benzylamino-2,6-dimethoxy-phenyl)-1H-pyrazol-3-ylamino]-pyrazine-2-carbonitrile], the IC50 with MIA PaCa-2 cells (setting [1]) is 5390 nM. In addition, in the experiment with MIA PaCa-2 cells (MIA PaCa-2 cells, 72 h), the “10xLS” value was 1000 nM and the “2xLS” value was 100 nM. Further, the IC50 on Chk-1 kinase came to 2.8 nM.

Regarding `COc1cc(NCc2ccccc2)ccc1-c1cc(Nc2cnc(C#N)cn2)n[nH]1` [Example 2, 5-[5-(4-benzylamino-2-methoxy-phenyl)-1H-pyrazol-3-ylamino]-pyrazine-2-carbonitrile], the 50% inhibitory concentration (IC50) with MIA PaCa-2 cells (setting [1]) worked out at 1410 nM. Also, in the experiment with MIA PaCa-2 cells (MIA PaCa-2 cells, 72 h), the “10xLS” value came to 1000 nM and the “2xLS” value worked out at 100 nM. Also, the IC50 at Chk-1 kinase is 2.7 nM.

In the case of `COc1cc(CNCc2ccccc2)ccc1-c1cc(Nc2cnc(C#N)cn2)n[nH]1` [Example 3, 5-{5-[4-(Benzylamino-methyl)-2-methoxy-phenyl]-1H-pyrazol-3-ylamino}-pyrazine-2-carbonitrile hydrochloride], the IC50 with MIA PaCa-2 cells (setting [2]) is 275 nM. Also, in the experiment on MIA PaCa-2 cells (MIA PaCa-2 cells, 72 h), the “10xLS” value is given as 100 nM and the “2xLS” value is reported as 10 nM. Also, at Chk-1 kinase, the IC50 was determined as 0.21 nM.

Turning to `COc1cc(CCNCc2ccccc2)ccc1-c1cc(Nc2cnc(C#N)cn2)n[nH]1` [Example 4, 5-{5-[4-(2-Benzylamino-ethyl)-2-methoxy-phenyl]-1H-pyrazol-3-ylamino}-pyrazine-2-carbonitrile hydrochloride], at Chk-1 kinase, the IC50 stood at 0.19 nM.

For `N#Cc1cnc(Nc2cc(-c3ccc(CNCc4ccccc4)cc3)[nH]n2)cn1` [Example 5, 5-{5-[4-(benzylamino-methyl)-phenyl]-1H-pyrazol-3-ylamino}-pyrazine-2-carbonitrile], the IC50 on Chk-1 kinase turned out to be 2 nM.

Regarding `COc1cc(CN[C@@H](C)c2ccc(F)cc2)ccc1-c1cc(Nc2cnc(C#N)cn2)n[nH]1` [Example 6, 5-[5-(4-{[(S)-1-(4-fluoro-phenyl)-ethylamino]-methyl}-2-methoxy-phenyl)-1H-pyrazol-3-ylamino]-pyrazine-2-carbonitrile], the IC50 in the experiment with MIA PaCa-2 cells (setting [1]) stood at 338 nM. Further, in the experiment with MIA PaCa-2 cells (MIA PaCa-2 cells, 72 h), the “10xLS” value came to 300 nM and the “2xLS” value was 30 nM. For the same molecule, the 50% inhibitory concentration (IC50) on Chk-1 kinase is 0.097 nM.

Regarding `COc1cc(CN[C@H](C)c2ccc(F)cc2)ccc1-c1cc(Nc2cnc(C#N)cn2)n[nH]1` [Example 7, 5-[5-(4-{[(R)-1-(4-fluoro-phenyl)-ethylamino]-methyl}-2-methoxy-phenyl)-1H-pyrazol-3-ylamino]-pyrazine-2-carbonitrile], the IC50 in the experiment on MIA PaCa-2 cells (setting [1]) was 208 nM. In the experiment with MIA PaCa-2 cells (MIA PaCa-2 cells, 72 h), the “10xLS” value is recorded as around 200 nM and the “2xLS” value amounted to 10 nM. Further, the IC50 at Chk-1 kinase amounted to 0.1 nM.

`COc1cc(CNC(=O)C2CC2)ccc1-c1cc(Nc2cnc(C#N)cn2)n[nH]1` [Example 13, N-[[4-[3-[(5-cyanopyrazin-2-yl)amino]-1H-pyrazol-5-yl]-3-methoxy-phenyl]methyl]cyclopropanecarboxamide]: in the experiment with MIA PaCa-2 cells (setting [1]), the IC50 was above 3000 nM. Further, in the experiment with MIA PaCa-2 cells (MIA PaCa-2 cells, 72 h), the “10xLS” value stood at 300 nM and the “2xLS” value is reported as around 20 nM.

For `COc1cc(C2CCCCN2C)ccc1-c1cc(Nc2cnc(C#N)cn2)n[nH]1` (centres unmarked) [Example 41, 5-[[5-[2-methoxy-4-(1-methyl-2-piperidyl)phenyl]-1H-pyrazol-3-yl]amino]pyrazine-2-carbonitrile], the IC50 in the experiment on MIA PaCa-2 cells (setting [1]) came out at 1110 nM. Also, in the experiment with MIA PaCa-2 cells (MIA PaCa-2 cells, 72 h), the “10xLS” value is given as 300 nM and the “2xLS” value came to 30 nM.

As for `COc1cc(C2CCNCC2)ccc1-c1cc(Nc2cnc(C(=O)O)cn2)n[nH]1` [Example 45, 5-[[5-[2-methoxy-4-(4-piperidyl)phenyl]-1H-pyrazol-3-yl]amino]pyrazine-2-carboxylic acid], the IC50 at Chk-1 kinase is above 100 nM.

Take `COc1cc(OCc2cocn2)ccc1-c1cc(Nc2cnc(C#N)cn2)n[nH]1` [Example 105, 5-[[5-[2-methoxy-4-(oxazol-4-ylmethoxy)phenyl]-1H-pyrazol-3-yl]amino]pyrazine-2-carbonitrile]: the IC50 in the experiment with MIA PaCa-2 cells (setting [1]) came to 2300 nM. In the experiment on MIA PaCa-2 cells (MIA PaCa-2 cells, 72 h), the “10xLS” value is listed as 1000 nM and the “2xLS” value is reported as 30 nM.

Regarding `COc1cc([C@H]2CN(C)CCO2)ccc1-c1cc(Nc2cnc(C#N)cn2)n[nH]1` [Example 119, 5-[[5-[2-methoxy-4-[(2S)-4-methylmorpholin-2-yl]phenyl]-1H-pyrazol-3-yl]amino]pyrazine-2-carbonitrile], the half-maximal inhibitory concentration (IC50) in the experiment on MIA PaCa-2 cells (setting [1]) was 687 nM. Further, in the experiment on MIA PaCa-2 cells (MIA PaCa-2 cells, 72 h), the “10xLS” value is recorded as below 300 nM and the “2xLS” value came out at 10 nM.

Consider `CCN1CCO[C@@H](c2ccc(-c3cc(Nc4cnc(C#N)cn4)n[nH]3)c(OC)c2)C1` [Example 120, 5-[[5-[2-methoxy-4-[(2S)-4-ethylmorpholin-2-yl]phenyl]-1H-pyrazol-3-yl]amino]pyrazine-2-carbonitrile], for which, in the experiment with MIA PaCa-2 cells (setting [1]), the IC50 was 397 nM. For the same molecule, in the experiment on MIA PaCa-2 cells (MIA PaCa-2 cells, 72 h), the “10xLS” value is on record as 100 nM and the “2xLS” value came to 3 nM.

Consider `COc1cc(CN2CC[C@H](OC)C2)ccc1-c1cc(Nc2cnc(C#N)cn2)n[nH]1` [Example 124, 5-[[5-[2-methoxy-4-[[(3S)-3-methoxypyrrolidin-1-yl]methyl]phenyl]-1H-pyrazol-3-yl]amino]pyrazine-2-carbonitrile], for which the IC50 with MIA PaCa-2 cells (setting [1]) was found to be 322 nM. In the experiment with MIA PaCa-2 cells (MIA PaCa-2 cells, 72 h), the “10xLS” value is given as below 300 nM and the “2xLS” value was 3 nM.

As to `COc1cc(CN2CC[C@@H](OC)C2)ccc1-c1cc(Nc2cnc(C#N)cn2)n[nH]1` [Example 125, 5-[[5-[2-methoxy-4-[[(3R)-3-methoxypyrrolidin-1-yl]methyl]phenyl]-1H-pyrazol-3-yl]amino]pyrazine-2-carbonitrile], the IC50 in the experiment with MIA PaCa-2 cells (setting [1]) stood at 550 nM. Besides, in the experiment with MIA PaCa-2 cells (MIA PaCa-2 cells, 72 h), the “10xLS” value is given as below 300 nM and the “2xLS” value is recorded as 10 nM.

With `CCN1CCC[C@@H]1Cc1ccc(-c2cc(Nc3cnc(C#N)cn3)n[nH]2)c(OC)c1` [Example 149, 5-[[5-[4-[[(2R)-1-ethylpyrrolidin-2-yl]methyl]-2-methoxy-phenyl]-1H-pyrazol-3-yl]amino]pyrazine-2-carbonitrile hydrochloride], the 50% inhibitory concentration (IC50) with MIA PaCa-2 cells (setting [2]) came out at 188 nM. In the experiment with MIA PaCa-2 cells (MIA PaCa-2 cells, 72 h), the “10xLS” value came out at 30 nM and the “2xLS” value is below 3 nM.

`COc1cc([C@H]2CN(C(C)C)CCO2)ccc1-c1cc(Nc2cnc(C#N)cn2)n[nH]1` [Example 150, 5-[[5-[4-[(2S)-4-isopropylmorpholin-2-yl]-2-methoxy-phenyl]-1H-pyrazol-3-yl]amino]pyrazine-2-carbonitrile]: the IC50 in the experiment on MIA PaCa-2 cells (setting [1]) was determined as 259 nM. Besides, in the experiment on MIA PaCa-2 cells (MIA PaCa-2 cells, 72 h), the “10xLS” value was found to be 100 nM and the “2xLS” value is 3 nM.

With `COc1cc(C[C@H]2CCCN2C(C)C)ccc1-c1cc(Nc2cnc(C#N)cn2)n[nH]1` [Example 151, 5-[[5-[4-[[(2R)-1-isopropylpyrrolidin-2-yl]methyl]-2-methoxy-phenyl]-1H-pyrazol-3-yl]amino]pyrazine-2-carbonitrile], the IC50 in the experiment on MIA PaCa-2 cells (setting [1]) came to 101 nM. Moreover, in the experiment on MIA PaCa-2 cells (MIA PaCa-2 cells, 72 h), the “10xLS” value is given as below 30 nM and the “2xLS” value is listed as below 3 nM.

For `CCN1CCC[C@H]1Cc1ccc(-c2cc(Nc3cnc(C#N)cn3)n[nH]2)c(OC)c1` [Example 152, 5-[[5-[4-[[(2S)-1-ethylpyrrolidin-2-yl]methyl]-2-methoxy-phenyl]-1H-pyrazol-3-yl]amino]pyrazine-2-carbonitrile], the IC50 in the experiment on MIA PaCa-2 cells (setting [1]) was found to be 428 nM. Further, in the experiment on MIA PaCa-2 cells (MIA PaCa-2 cells, 72 h), the “10xLS” value was 100 nM and the “2xLS” value is recorded as 3 nM.

Take `COc1cc(C[C@@H]2CCCN2C(C)C)ccc1-c1cc(Nc2cnc(C#N)cn2)n[nH]1` [Example 154, 5-[[5-[4-[[(2S)-1-isopropylpyrrolidin-2-yl]methyl]-2-methoxy-phenyl]-1H-pyrazol-3-yl]amino]pyrazine-2-carbonitrile]: in the experiment on MIA PaCa-2 cells (setting [1]), the IC50 was determined as 395 nM. In addition, in the experiment on MIA PaCa-2 cells (MIA PaCa-2 cells, 72 h), the “10xLS” value amounted to 100 nM and the “2xLS” value worked out at 3 nM.
